Key:
sGCα1 = assay: Western blotting of lung tissue, OVA-sensitized and -challenged mice; format: in vivo; conditions: nebulization, 28-day experiment
PKG = assay: as above; format: in vivo; conditions: nebulization, 28-day experiment
ICAM-1 = assay: as above; format: in vivo
From the text: (§1) Inhaled KMUP-1 can be absorbed into airway and blood flow to increase eNOS and down-regulate Rho-kinase expression by a cGMP-dependent pathway, protecting OVA-sensitized and challenged ICAM-1/VCAM-1 expression-associated cellular adhesion and migration activity of neutrophils.

VCAM-1 = assay: as above; format: in vivo
From the text: as §1

eNOS = assay: Immunostaining of lung sections, OVA mice; format: in vivo
From the text: OVA decreases vascular eNOS-immunostaining in lung sections, but KMUP-1 prevents this decrease quantitatively.

MMP-9 = assay: Immunostaining of lung sections, OVA mice; format: in vivo; conditions: OVA-sensitized and -challenged mice
TGF-β = TGF-β expression, bleomycin-induced lung fibrosis (EIA); format: in vivo, mice; conditions: BM 60 mg/kg; drug 2.5 mg/kg oral
Procedure: The increased amount of the collagen synthesis and the macrophage generation in alveolus may facilitate the formulation of TGF-β, and the expression of TGF-β is deeming as a biomarker of the lung fibrosis. KMUP-1HCl salt (1, 2.5 and 5 mg/kg), the Simvastatin (5 mg/kg), the KMUP-1-nicotinic acid complex (2.5 mg/kg), the KMUP-1-Simvastatinic acid complex (2.5 mg/kg) and KMUP-1-γ-polyglutamic acid complex (2.5 mg/kg) are orally administered to the mice for inhibiting the lung fibrosis induced by TGF-β expression in tracheal lavage solution that resulted from 60 mg/kg BM inhalation (Table 6). The state of the TGF-β expression in the lavage is measured by the enzyme immunoassay (EIA).

| SMILES | sGCα1 expression reduced by OVA sensitization (sGCα1) | PKG expression reduced by OVA sensitization (PKG) | ICAM-1 expression (ICAM-1) | VCAM-1 expression (VCAM-1) | Vascular eNOS-immunostaining decreased by OVA (eNOS) | MMP-9 positive cells (MMP-9) | The changing amount of TGF-β in the lung tissue (TGF-β) |
| --- | --- | --- | --- | --- | --- | --- | --- |
| Cn1c(=O)c2c(ncn2CCN2CCN(c3ccccc3Cl)CC2)n(C)c1=O [KMUP-1, 7-[2-[4-(2-chlorobenzene)piperazinyl]ethyl]-1,3-dimethylxanthine] | prevented | prevented | suppressing | suppressing | prevents | hardly detected |  |
| CCC(C)(C)C(=O)O[C@H]1C[C@@H](C)C=C2C=C[C@H](C)[C@H](CC[C@@H](O)C[C@@H](O)CC(=O)O)[C@H]21.Cn1c(=O)c2c(ncn2CCN2CCN(c3ccccc3Cl)CC2)n(C)c1=O [KMUP-5] |  |  |  |  |  |  | 45 ± 4.5% |

From patent US20100317671A1, “XANTHINE-BASED CYCLIC GMP-ENHANCING RHO-KINASE INHIBITOR INHIBITS PHYSIOLOGICAL ACTIVITIES OF LUNG EPITHELIAL CELL LINE” (KAOHSIUNG MEDICAL UNIVERSITY, priority 2008, published 2010)
